The text below walks through data of patent publication US5726325A, “Tricyclic compounds” (Kyowa Hakko Kogyo Co., Ltd., priority 1995, dated 1998).

In general, IC50 refers to the concentration that gives 50% inhibition. Low readings indicate greater potency, high ones weaker potency.

Structures are written as SMILES.

Assay [1] has as its system detrusor muscle. In words: Test Example 1: relaxation of guinea pig bladder strips contracted with 50 mM KCl. Format: cell-based, guinea pig (male albino Hartley). The note with it: Cavia porcellus; contraction induced by 50 mM KCl; concentration decreasing detrusor contraction by 50%. An excerpt: (§1) The activity of Compound (I) as a smooth muscle relaxant which is useful as a therapeutic agent for urinary incontinence can be observed, for example, using the following tests. In the following Test Examples 1 and 2, "IC50 " means the concentration of a test compound which induces the decrease in the contraction of detrusor muscle by 50%.
(§2) Male albino Hartley guinea pigs (350-550 g) were used as test animals. Each animal was exsanguinated to death under pentobarbital sodium anesthesia. The lower abdominal cavity was opened and its bladder was positioned. The connective tissue and the fat tissue around the bladder were removed, and the bladder was cleaned. After two pelvic nerves on the surface of the abdominal side of the bladder were dissected, the bladder was taken out on the entrance of ureter. The bladder was washed with a Krebs-Henseleit buffer [composition (mM): NaCl 118, KCl 4.7, MgSO4 1.2, KH2 PO4 1.2, CaCl2 2.5, NaHCO3 25, and D-glucose 11.1], and then put on a gauze patch soaked in the buffer in a Petri dish. The dome and the trigone of the bladder were dissected and discarded. The back of the bladder was cut vertically in the middle with scissors, and the bladder was put flat on the gauze patch. The dome tip and the side of the trigone of the bladder were dissected and discarded, and the mucosa of the bladder was removed. The back of the bladder was cut vertically to get 6 strips which are ca. 2.0 mm wide and ca. 10 mm long.
(§3) One end of each strip was fixed on a plastic supporter rod, and the other end was fixed on a clip connected to a suture thread. The supporter was fixed in 20 ml of an organ bath and the suture thread connected to the clip was fixed on a force-displacement transducer (NIHON KODEN TB-611T). The tissue was suspended in a Krebs-Henseleit buffer, and the bath solution was warmed to 37° C. and bubbled with a gas mixture of 5% CO2 and 95% O2. The pH of the solution was adjusted to about 7.4. The transducer was connected to a polygraph (NIHON KODEN AP-621G), and the change of tension was recorded on a recorder (YOKOGAWA type 3066). The polygraph was graduated by 0.5 g/cm.
After the tissue was incubated in the buffer for 15 minutes without preloading, tension was added thereto for about one hour. The preloading tension added was 1.5 g and it was relaxed to about 1 g. The tissue was washed at intervals of 15 minutes and the tension was adjusted to 1.5 g just before washing. The tension of the tissue was adjusted to be a steady state at 1 g. After this equilibrium time, 50 mM KCl (the whole content in the bath) was added, and the tissue was washed 10 minutes later. KCl was added to the tissue at intervals of 30 minutes, followed by washing 10 minutes later, and KCl was applied repeatedly until the developed tension induced by KCl becomes constant. When the tissue was confirmed to contract constantly by the application of KCl and relax to the steady state after washing, 50 mM KCl was applied again. After the tissue reached the steady state and the base line was obtained, a test compound was applied by the cumulative method (half-logarithmic incremence). The contact time at each concentration was 30 minutes. The activity of the compound was expressed as the maximum relaxation rate (%) of the tension induced by the agonist.

Another assay has as its system bladder. Kind of assay: Test Example 4: micturition contraction interval in rats under partial restraint, oral. Format: in vivo, rat (male SD strain). The note with it: Rattus norvegicus, pre-administration = 100; for response vs control in vivo at 1 mg/kg: 1.0 mg/kg oral, second part of Table 4; for response vs control in vivo at 0.1 mg/kg: 0.1 mg/kg oral. From the text:
As a control compound, cromakalim was used.

The test system of assay [2] is detrusor muscle. In words: Test Example 2: relaxation of guinea pig bladder strips, rhythmical contraction induced by 15 mM KCl. To be noted: Cavia porcellus, concentration decreasing detrusor contraction by 50%. Type of assay: cell-based, guinea pig (male albino Hartley).
From the text: as §1, §2, §3
The effect of a smooth muscle relaxant varies with the concentration of KCl based on the difference of an action mechanism. In the following Test Example, KCl was used at a concentration different from that in Test Example 1.
A sample of the excised bladder was prepared in the same manner as in Test Example 1, and the tension of the preparation was measured. After the tension of the tissue was adjusted to be a steady state at 1 g, 15 mM KCl was applied. After the rhythmical contraction was confirmed to appear by KCl, the tissue was washed. Then, 15 mM KCl was applied again. After the rhythmical contraction took place constantly and the tissue reached the steady state, a test compound was applied by the cumulative method (half-logarithmic incremence). The contact time at each concentration was 30 minutes. The activity of the compound was expressed as the maximum relaxation rate (%) of the tension induced by the agonist.

With `CC(O)(C(=O)Nc1cccc2c1C(=O)c1occc1CO2)C(F)(F)F` (centres unmarked) [Compound 15, 9-(3,3,3-Trifluoro-2-hydroxy-2-methylpropanoylamino)-4,10-dihydrofuro[3,2-c][1]benzoxepin-10-one], the values for the IC50 in the assay on detrusor muscle [1] and in the assay with detrusor muscle [2] were 7.1 µM and 9.4 µM, respectively. The response vs control in vivo at 1 mg/kg in the assay on bladder (1 hr after administration) was 130 ± 9.5%; in the assay with bladder (2 hr after administration), 128 ± 5.3%; in the assay on bladder (3 hr after administration), 107 ± 16.5%; in the assay with bladder (4 hr after administration), 121 ± 11.4%; in the assay on bladder (5 hr after administration) it was 135 ± 12.6%.
Regarding `C[C@](O)(C(=O)Nc1cccc2c1C(=O)c1sccc1CO2)C(F)(F)F` [Compound 33, (S)-9-(3,3,3-trifluoro-2-hydroxy-2-methylpropanoylamino)-4,10-dihydrothieno[3,2-c][1]benzoxepin-10-one], the figures for the IC50 with detrusor muscle [1] and with detrusor muscle [2] were 1.1 µM and 2.7 µM, respectively. Further, the response vs control in vivo at 0.1 mg/kg in the assay on bladder (1 hr after administration) worked out at 135 ± 21.7%; with bladder (2 hr after administration), 146 ± 25.5%; in the assay with bladder (3 hr after administration) it was 143 ± 24.4%; with bladder (4 hr after administration) it was 156 ± 30.6%; in the assay on bladder (5 hr after administration), 161 ± 37.4%.
As to `CC(O)(C(=O)Nc1ccc2c(c1)OCc1ccccc1C2=O)C(F)(F)F` (centres unmarked) [Compound 2, 3-(3,3,3-Trifluoro-2-hydroxy-2-methylpropanoylamino)-6,11-dihydrodibenz[b,e]oxepin-11-one], the IC50 in the assay with detrusor muscle [1] was determined as 3.6 µM; in the assay with detrusor muscle [2] it was 3.4 µM. Moreover, the response vs control in vivo at 1 mg/kg was found to be 121 ± 6.2% in the assay on bladder (1 hr after administration); 135 ± 12.3% in the assay on bladder (2 hr after administration); 144 ± 16.3% in the assay on bladder (3 hr after administration); 141 ± 15.6% in the assay on bladder (4 hr after administration); 145 ± 16% with bladder (5 hr after administration).
In the case of `CC(O)(C(=O)Nc1ccc2c(c1)OCc1occc1C2=O)C(F)(F)F` (centres unmarked) [Compound 10, 7-(3,3,3-Trifluoro-2-hydroxy-2-methylpropanoylamino)-4,10-dihydrofuro[2,3-c][1]benzoxepin-4-one], the 50% inhibitory concentration (IC50) with detrusor muscle [1] was determined as 10 µM; with detrusor muscle [2], 1.9 µM. Moreover, the response vs control in vivo at 1 mg/kg in the assay with bladder (1 hr after administration) worked out at 132 ± 11.2%; in the assay with bladder (2 hr after administration) it was 142 ± 17.5%; with bladder (3 hr after administration), 158 ± 22.3%; in the assay on bladder (4 hr after administration), 174 ± 29.9%; in the assay with bladder (5 hr after administration), 183 ± 42.7%.
For the compound `CC(O)(C(=O)Nc1ccc2c(c1)CCc1ccccc1C2=O)C(F)(F)F` (centres unmarked) [Compound 54, 2-(3,3,3-Trifluoro-2-hydroxy-2-methylpropanoylamino)-10,11-dihydro-5H-dibenzo[a,d]cyclohepten-5-one], the IC50 with detrusor muscle [1] is 3.8 µM; in the assay with detrusor muscle [2], > 10 µM.
For `C[C@](O)(C(=O)Nc1ccc2c(c1)C(=O)c1sccc1CO2)C(F)(F)F` [Compound 39, (S)-8-(3,3,3-Trifluoro-2-hydroxy-2-methylpropanoylamino)-4,10-dihydrothieno[3,2-c][1]benzoxepin-10-one] the same measures were > 10 µM and 2.6 µM.
Take `CC(O)(C(=O)Nc1ccc2c(c1)-c1ccccc1C2=O)C(F)(F)F` (centres unmarked) [Compound 6, 3-(3,3,3-Trifluoro-2-hydroxy-2-methylpropanoylamino)fluoren-9-one]: the IC50 with detrusor muscle [1] stood at 6.1 µM; in the assay on detrusor muscle [2] it was 11.2 µM.
Consider `CC(O)(C(=O)Nc1cccc2c1C(=O)c1ccoc1CS2)C(F)(F)F` (centres unmarked) [Compound 42, 5(3,3,3-Trifluoro-2-hydroxy-2-methylpropanoylamino)-4,10-dihydrofuro[2,3-c][1]benzothiepin-4-one], for which the IC50 in the assay with detrusor muscle [1] is 4.7 µM; in the assay on detrusor muscle [2], 1.5 µM.
As for `CC(O)(C(=O)Nc1ccc2c(c1)SCc1ccccc1C2=O)C(F)(F)F` (centres unmarked) [Compound 41, 3-(3,3,3-Trifluoro-2-hydroxy-2-methylpropanoylamino)-6,11-dihydrodibenzo[b,e]thiepin-11-one], the IC50 was 2.1 µM in the assay on detrusor muscle [1] and 1.6 µM in the assay on detrusor muscle [2].
`CC(O)(C(=O)Nc1ccc2c(=O)c3occc3ccc2c1)C(F)(F)F` (centres unmarked) [Compound 68, 7-(3,3,3-Trifluoro-2-hydroxy-2-methylpropanoylamino)-10H-benzo[5,6]cyclohepta[1,2-b]furan-10-one]: the IC50 in the assay with detrusor muscle [1] was > 10 µM; in the assay on detrusor muscle [2], 3.5 µM.
In the case of `CC(O)(C(=O)Nc1ccc2c(c1)CCc1ncccc1C2=O)C(F)(F)F` (centres unmarked) [Compound 59, 8-(3,3,3-Trifluoro-2-hydroxy-2-methylpropanoylamino)-10,11-dihydro-5H-benzo[4,5]cyclohepta[1,2-b]pyridin-5-one], the IC50 was > 10 µM with detrusor muscle [1] and 5 µM in the assay on detrusor muscle [2].
The corresponding values for `CC(O)(C(=O)Nc1cccc2ccc3sccc3c(=O)c12)C(F)(F)F` (centres unmarked) [Compound 66, 5-(3,3,3-Trifluoro-2-hydroxy-2-methylpropanoylamino)-4H-benzo[4,5]cyclohepta[1,2-b]thiophen-4-one] are 1.4 µM and 2.1 µM.
As to `CC(O)(C(=O)Nc1cccc2c1-c1ccccc1C2=O)C(F)(F)F` (centres unmarked) [Compound 14, 4-(3,3,3-Trifluoro-2-hydroxy-2-methylpropanoylamino)fluoren-9-one], the IC50 worked out at 5.7 µM with detrusor muscle [1] and 2.3 µM in the assay on detrusor muscle [2].
For the compound `CC(O)(C(=O)Nc1cccc2ccc3ccccc3c(=O)c12)C(F)(F)F` (centres unmarked) [Compound 60, 4-(3,3,3-Trifluoro-2-hydroxy-2-methylpropanoylamino)-5H-dibenzo[a,d]cyclohepten-5-one], the results for the IC50 in the assay on detrusor muscle [1] and with detrusor muscle [2] were > 10 µM and 4.1 µM, respectively.
For `CC(O)(C(=O)Nc1ccc2c(=O)c3ccccc3ccc2c1)C(F)(F)F` (centres unmarked) [Compound 62, 2-(3,3,3-Trifluoro-2-hydroxy-2-methylpropanoylamino)-5H-dibenzo[a,d]cyclohepten-5-one], the IC50 with detrusor muscle [1] was 9.3 µM; in the assay on detrusor muscle [2] it was > 10 µM.
For the compound `Cc1ccc(NC(=O)C(C)(O)C(F)(F)F)c2c1OCc1ccsc1C2=O` (centres unmarked) [Compound 26, 6-Methyl-9-(3,3,3-trifluoro-2-hydroxy-2-methylpropanoylamino)-4,10-dihydrothieno[3,2-c][1]-benzoxepin-10-one], the IC50 was 7.1 µM in the assay on detrusor muscle [1] and > 10 µM with detrusor muscle [2].
On to `C[C@@](O)(C(=O)Nc1ccc2c(c1)OCc1occc1C2=O)C(F)(F)F` [Compound 38, (R)-7-(3,3,3-Trifluoro-2-hydroxy-2-methylpropanoylamino)-4,10-dihydrofuro[2,3-c][1]benzoxepin-4-one], for which the IC50 is 13.4 µM in the assay with detrusor muscle [1] and 0.9 µM with detrusor muscle [2].
On to `CC(O)(C(=O)Nc1cccc2c1C(=O)c1ccccc1CS2)C(F)(F)F` (centres unmarked) [Compound 40, 1-(3,3,3-Trifluoro-2-hydroxy-2-methylpropanoylamino)-6,11-dihydrodibenzo[b,e]thiepin-11-one], for which the IC50 was determined as 1.5 µM with detrusor muscle [1] and 3.5 µM in the assay with detrusor muscle [2].
